Measurements as given in patent US20050074810A1, “Method for non-invasilvely determining the relative levels of two biological substances” (priority 2001, published 2005).
Read-outs that look alike come from different tables or passages of the source.

Assays:
[1] = subdermal lactate 1.74 mM, ammonium 1.56 mM
Experimental: Experiments were performed in specially-designed iontophoresis diffusion cells (Laboratory Glass Apparatus, Berkeley, Calif., USA) as represented in FIG. 7.
The anodal and cathodal chambers contacted the outer surface of the skin and contained the receptor (collection) media, respectively, 80 mM Tris/TrisHCl and 25 mM Tris+34 mM Mops (both buffered to pH 7.4).
Dermatomed pig-ear skin was clamped between the two halves of the iontophoresis cell and each chamber was filled with the appropriate solution.
The sub-dermal chamber was filled with the “donor solution which was perfused continuously at 2-3 mL/hour by means of a peristaltic pump.
A current of 0.4 mA (0.5 mA/cm^2) was passed for a total of 5 hours between the Ag/AgCl electrodes which were inserted into the anodal and cathodal chambers.
Every hour, the entire anode and cathode solutions were withdrawn and the chambers were refilled with fresh buffer.

[2] = in vivo, 4 mA for 5 minutes, 4.5 cm^2, lithium nitrate electrolyte; cited from earlier work

SMILES | Deduced transport number (×100) ([1]; 3 h) | K for analyte/internal standard couple, internal standard Na^+ ([1]; 3 h) | Deduced transport number (×100) ([1]; 5 h) | K for analyte/internal standard couple, internal standard Na^+ ([1]; 5 h) | Extracted flux ratio (×10^3) relative to K^+ ([1]; 3 h) | Extracted flux ratio (×10^3) relative to Na^+ ([1]; 3 h) | Extracted flux ratio (×10^3) relative to K^+ ([1]; 5 h) | Extracted flux ratio (×10^3) relative to Na^+ ([1]; 5 h) | Concentration in the cathode chamber after current passage [2]
N [Ammonium, ammonium] | 1.36 ± 0.09 ×100 | 1.71 ± 0.09 | 1.44 ± 0.03 ×100 | 1.71 ± 0.01 |  |  |  |  | 
CC(O)C(=O)O (stereo not shown) [Lactate, lactate] | 0.59 ± 0.08 ×100 | 0.66 ± 0.01 | 0.56 ± 0.07 ×100 | 0.60 ± 0.08 | 149 ± 3.3 ×10^3 | 8.7 ± 0.1 ×10^3 | 138 ± 15 ×10^3 | 7.8 ± 1.1 ×10^3 | 
[K+] [K^+, potassium] |  |  |  |  |  |  |  |  | about 14 μEq/L
